Laboratory results as given in patent US10300020B2 (West-Ward Pharmaceuticals International Limited, priority 2005, dated 2019).

Conditions: calcium acetate used in Example 1
Source text: In another preferred embodiment, the bulk density is between about 0.30 g/cc to about less than 0.55 g/cc. More preferably the bulk density is between about 0.30 g/cc to about 0.45 g/cc.

Q: With `CC(=O)[O-].CC(=O)[O-].[Ca+2]` [calcium acetate] as the molecule, how does the bulk density read?
A: 0.47 g/cc
